Measured values taken from patent publication US20260234217A1, “USE OF BMP RECEPTOR ALK1 INHIBITORS IN OSTEOARTHRITIS THERAPIES” (The Regents of the University of California, priority 2023, published 2026).

Assays:
[1] = system: BMP-9-induced BMP reporter activity by ALK5-deficient ATDC5 cells; test: BMP-9-induced BMP signal luciferase reporter in ALK5-deficient chondrocytic cells; format: cell-based, mouse; conditions: in the presence of 2 ng/mL of rhBMP-9; read-out: median effective concentration (EC50) to block BMP activity in vitro
Text: Ligands that bind to ALK1 at physiological concentrations are BMP9 and BMP10 (Chen et al, PNAS 2013). […] ActRIIB has 300-fold higher affinity for BMP9 than does ActRIIA (Townson et. al., J Biol Chem. 2012 Aug. 10; 287(33):27313-2). The formation of ALK1-ActRIIB complexes is associated with the elevation of levels of pSmad1/5-mediated BMP signaling in cartilage (Wang et al., PNAS 2009)[4]. […] Furthermore, since loss of ALK5 causes OA and ALK5 antagonizes ALK1, these above results provide evidence that blocking ALK1 signaling may prevent OA development.
As described herein, the ALK1 receptor normally binds to ALK5 and/or ActRIIA in healthy chondrocytes, but in OA conditions ALK5 expression levels decline in chondrocytes and ALK1 tends to complex with ActRIIB; this ALK1/ActRIIB complex has high affinity for BMP9 and BMP10. […] BMP signaling output is monitored by a BMP signal luciferase reporter plasmid which contains a Smad1/5/8 response element in the promoter region. The biological efficacy of ALK1 antagonists is measured by their ability to inhibit BMP-9-induced BMP reporter activity by ALK5-deficient chondrocytic cells, such as ALK5-deficient ATDC5 cells. […]

adult growth plate = test: SOFG histology of proximal tibial growth plate in DMM mice; format: in vivo, mouse; conditions: week 8 after DMM surgery
Text: FIG. 10. […] Sagittal sections of the proximal tibial growth plate were stained with Safranin-O/Fast Green (SOFG) to visualize proteoglycan (red) in the growth plate, subchondral bone (top blue), and trabecular bone (bottom blue) at week 8 after DMM or Sham surgery. […] Alk1^Col2 mice underwent DMM surgery (DMM+Alk1^Col2). WT control mice (lacking Col2a1-Cre) underwent sham surgery and received PBS treatment (Sham+PBS). (n=5/group).
(§1) Knee joint samples were harvested and fixed in 4% Paraformaldehyde for 3 days, and subsequently decalcified in formic acid (Statlab; 1414-32) for 3 days and embedded in paraffin. Sagittal sections 7 micrometers in thickness were taken and stained using Safranin-O (Sigma-Aldrich; S8884-25G), fast green (Sigma-Aldrich; F7258-25G), and hematoxylin (Fisherbrand; 245-656) using a standard histology protocol. Images were taken with the Olympus BX60 brightfield microscope using a 10× objective lens. Representative sections throughout the medial and lateral portion of side were chosen for histological analysis, resulting in 5 sections being imaged for both portions of the joint.

ALK3 [2] = molecular target: T1, ALK3 (Homo sapiens, UniProt P36894); test: kinase assay (biochemical IC50, literature); conditions: concentration of 200 nM
T1 sequence (P36894 24-532, species assumed): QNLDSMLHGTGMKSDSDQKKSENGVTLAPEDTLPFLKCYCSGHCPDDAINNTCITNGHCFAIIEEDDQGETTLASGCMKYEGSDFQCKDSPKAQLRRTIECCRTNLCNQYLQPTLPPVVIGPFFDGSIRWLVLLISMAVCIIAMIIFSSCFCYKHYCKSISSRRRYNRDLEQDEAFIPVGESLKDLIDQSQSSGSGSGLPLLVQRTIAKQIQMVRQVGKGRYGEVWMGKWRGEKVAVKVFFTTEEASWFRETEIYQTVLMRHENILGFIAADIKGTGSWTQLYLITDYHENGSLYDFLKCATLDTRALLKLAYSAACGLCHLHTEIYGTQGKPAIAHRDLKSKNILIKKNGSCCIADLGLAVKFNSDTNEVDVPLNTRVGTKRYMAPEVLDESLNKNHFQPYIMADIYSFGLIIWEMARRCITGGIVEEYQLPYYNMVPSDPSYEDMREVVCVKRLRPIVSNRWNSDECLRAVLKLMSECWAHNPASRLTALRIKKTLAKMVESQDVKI

[3] = system: articular cartilage of DMM mice; test: DMM model of post-traumatic OA: Safranin-O/Fast Green staining and OARSI scoring of articular cartilage damage; format: in vivo, mouse; conditions: for articular cartilage damage (SOFG staining, OARSI scoring): treatment from the time of DMM surgery, weekly, compared to PBS
Method: FIG. 13. Growth differentiation factor 11 (GDF11, see, e.g., NCBI Reference Sequence: NP_005802.1) competes with BMP9/10 for binding to BMP type II receptors ACVRIIA or ACVRIIB, thereby preventing the association of BMP type I receptor ALK1 with ACVRIIA/B and decreasing BMP signaling. […] We tested this hypothesis by locally injecting GDF11 (50 ng/dose) into the knee joint space at mice with established post-traumatic OA. (A) Experimental Outline (B) Safranin-O/Fast Green (SOFG) Staining of sagittal sections of the knee joint, femur (top) and tibia (bottom) for proteoglycan (cartilage; red) and bone (green) at week 8 after DMM or Sham surgery. Mice were treated with either GDF11, or Phosphate Buffered Saline (PBS) after received surgery (n=5/group). 4-Week DMM mice were sacrificed 4 weeks after surgery and received no treatment (n=6). AC damage indicated by dotted line. (C-D) Osteoarthritis Research Society International (OARSI) scoring of AC damage in the (C) medial tibial plateau and (D) medial femoral condyle in representative sections of each treatment at week 4 or 8 after surgery. All data are shown as mean bar+/−standard deviation *p<0.05. Data analysis performed was one-way ANOVA. Scale 250 uM.
Mice (C57BL/6J) were purchased from The Jackson Laboratory. All mice were housed on a 12-hour light/dark cycle with unrestricted access to standard mouse food and water. The DMM model of injury induced OA was performed on mice at 12 weeks of age by opening the joint capsule and transecting the medial meniscotibial ligament in the right knee, destabilizing the medial meniscus(48). A sham operation was performed on the left knee of each mouse by observing the medial meniscotibial ligament but not transecting it. Mice were administered carprofen 5 mg/kg (Zoetis; 1041283) subcutaneously 30 minutes prior to surgery, immediately post-surgery, and 24 hours post-surgery to minimize pain.
Treatments were initiated either 1 day after DMM surgery once a week for 8 weeks, or 1 month after DMM surgery twice a week for 4 weeks. Mice were sacrificed at 20 weeks of age (2 months after surgery). To understand the level of articular cartilage damage 1 month after DMM surgery, a cohort of mice was sacrificed at 16 weeks old (FIG. 4).
as §1
The 10 total sections per joint chosen for histology received randomized sample numbers and were given to three independent researchers who scored the level of cartilage damage based on OARSI guidelines (84). OARSI scores were analyzed with Prism 9 Software (GraphPad) using two-way ANOVA and Tukey's multiple comparisons test post-hoc. Scoring was performed by at least three experienced investigators blinded to treatment/genotype. Scores were averaged for the medial tibial plateau, medial femoral condyle, lateral tibial plateau, and lateral femoral condyle for each sample.

ALK3 [4] = molecular target: T1, ALK3; conditions: kinase assay; cited from earlier work
[5] = delayed treatment, week 8, vs vehicle-treated mice examined 4 weeks after surgery

COc1cc(-c2cc(-c3ccc(N4CCNCC4)cc3)cnc2C)cc(OC)c1OC [LDN-214117]
EC50 [1]: 40 nM | impact on adult growth plate maintenance (adult growth plate): no obvious impact | effect on ALK3 at the injected concentration (ALK3 [2]): < 25 % IC50 | articular cartilage damage, femoral surface [3, 5]: less damage | articular cartilage damage, tibial surface [3, 5]: less damage | articular cartilage damage (OARSI scoring) ([3]; treatment beginning 4 weeks after DMM, examined 8 weeks after surgery, vs vehicle-treated mice at 8 weeks): significantly less damage | articular cartilage damage (SOFG staining, OARSI scoring) ([3]; week 8): sufficient to prevent degradation of AC | articular cartilage damage (SOFG staining, OARSI scoring) ([3]; week 8, listed as BMP-KI): protection of articular cartilage | IC50 (ALK3 [4]): 1170 nM
